Data reported in PubChem BioAssay AID330 (DTP/NCI, 2004).
Several values for one entry are separate records, joined by “and”; a condition that tells them apart may be missing. Equal values may be shown once. Inconclusive results and toxic doses are left out.

Test system: P388 leukemia ip, CD2F1 mice, survival T/C
Experiment: NCI In Vivo Anticancer Drug Screen. Data for tumor model P388 Leukemia (intraperitoneal) in CD2F1 (CDF1) mice
Details: endpoint: median survival time, higher = longer survival
Method in brief: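 Mice carrying the transplanted tumor received test compound or vehicle. Survival was recorded in each group, and the value is the treated-group measurement divided by that of the vehicle-treated control group.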

SMILES: COc1cccc2c1C(=O)c1c(O)c3c(c(O)c1C2=O)C[C@@](O)(C(=O)CO)C[C@@H]3OC1CC(N)C(O)C(C)O1 (stereo partly drawn)
- T/C (dose: 0.04 mg/kg/injection, schedule: Q04DX003 (ip), vehicle: saline): 116 % of control
- T/C (dose: 0.04 mg/kg/injection, schedule: Q04DX003 (ip), vehicle: water): 115 % of control
- T/C (dose: 0.06 mg/kg/injection, schedule: Q01DX005 (sc), vehicle: water): 100 % of control
- T/C (dose: 0.06 mg/kg/injection, schedule: Q03HX008 (ip), vehicle: saline): 114 % of control
- T/C (dose: 0.06 mg/kg/injection, schedule: Q04DX003 (ip), vehicle: water): 122 % of control
- T/C (dose: 0.1 mg/kg/injection, schedule: Q04DX003 (ip), vehicle: water): 121 % of control
- T/C (dose: 0.12 mg/kg/injection, schedule: Q01DX005 (sc), vehicle: water): 101 % of control
- T/C (dose: 0.13 mg/kg/injection, schedule: Q01DX009 (ip), vehicle: water): 162 % of control
- T/C (dose: 0.13 mg/kg/injection, schedule: Q03HX008 (ip), vehicle: saline): 116 % of control
- T/C (dose: 0.25 mg/kg/injection, schedule: Q01DX001 (ip), vehicle: Klucel (hydroxypropylcellulose) (HPC)): 108 % of control
- T/C (dose: 0.25 mg/kg/injection, schedule: Q01DX001 (ip), vehicle: saline with Tween-80): 112 % of control
- T/C (dose: 0.25 mg/kg/injection, schedule: Q01DX001 (ip), vehicle: saline): 105 % of control
- T/C (dose: 0.25 mg/kg/injection, schedule: Q01DX005 (ip), vehicle: water): 153 % of control and 160 % of control and 161 % of control
- T/C (dose: 0.25 mg/kg/injection, schedule: Q01DX005 (sc), vehicle: water): 103 % of control
- T/C (dose: 0.3 mg/kg/injection, schedule: Q04DX003 (ip), vehicle: water): 153 % of control
- T/C (dose: 0.38 mg/kg/injection, schedule: Q01DX009 (ip), vehicle: water): 151 % of control
- T/C (dose: 0.38 mg/kg/injection, schedule: Q04DX003 (ip), vehicle: water): 103 % of control
- T/C (dose: 0.44 mg/kg/injection, schedule: Q04DX003 (ip), vehicle: saline): 158 % of control
- T/C (dose: 0.5 mg/kg/injection, schedule: Q01DX001 (ip), vehicle: Klucel (hydroxypropylcellulose) (HPC)): 112 % of control
- T/C (dose: 0.5 mg/kg/injection, schedule: Q01DX001 (ip), vehicle: saline with Tween-80): 115 % of control
- T/C (dose: 0.5 mg/kg/injection, schedule: Q01DX005 (oral), vehicle: water): 108 % of control
- T/C (dose: 0.5 mg/kg/injection, schedule: Q01DX005 (sc), vehicle: water): 108 % of control
- T/C (dose: 0.58 mg/kg/injection, schedule: Q04DX003 (ip), vehicle: saline): 159 % of control
- T/C (dose: 0.62 mg/kg/injection, schedule: Q01DX001 (ip), vehicle: water): 159 % of control
- T/C (dose: 0.63 mg/kg/injection, schedule: Q01DX001 (ip), vehicle: water): 154 % of control
- T/C (dose: 0.75 mg/kg/injection, schedule: Q04DX003 (ip), vehicle: water): 118 % of control
- T/C (dose: 0.97 mg/kg/injection, schedule: Q04DX002 (ip), vehicle: saline): 157 % of control and 160 % of control
- T/C (dose: 0.97 mg/kg/injection, schedule: Q04DX003 (ip), vehicle: water): 163 % of control
- T/C (dose: 1.0 mg/kg/injection, schedule: Q01DX001 (ip), vehicle: Klucel (hydroxypropylcellulose) (HPC)): 110 % of control
- T/C (dose: 1.0 mg/kg/injection, schedule: Q01DX001 (ip), vehicle: saline with Tween-80): 119 % of control
- T/C (dose: 1.0 mg/kg/injection, schedule: Q01DX001 (iv), vehicle: saline): 113 % of control
- T/C (dose: 1.0 mg/kg/injection, schedule: Q01DX005 (oral), vehicle: water): 112 % of control
- T/C (dose: 1.0 mg/kg/injection, schedule: Q01DX005 (sc), vehicle: water): 113 % of control
- T/C (dose: 1.0 mg/kg/injection, schedule: Q04DX003 (iv), vehicle: saline): 100 % of control
- T/C (dose: 1.04 mg/kg/injection, schedule: Q04DX002 (ip), vehicle: saline): 161 % of control
- T/C (dose: 1.08 mg/kg/injection, schedule: Q04DX003 (ip), vehicle: saline): 159 % of control
- T/C (dose: 1.3 mg/kg/injection, schedule: Q01DX001 (ip), vehicle: water): 156 % of control
- T/C (dose: 1.5 mg/kg/injection, schedule: Q04DX003 (ip), vehicle: water): 117 % of control and 120 % of control
- T/C (dose: 1.8 mg/kg/injection, schedule: Q01DX001 (ip), vehicle: saline): 154 % of control
- T/C (dose: 2.0 mg/kg/injection, schedule: Q01DX001 (ip), vehicle: DMSO): 157 % of control
- T/C (dose: 2.0 mg/kg/injection, schedule: Q01DX001 (ip), vehicle: Klucel (hydroxypropylcellulose) (HPC)): 122 % of control
- T/C (dose: 2.0 mg/kg/injection, schedule: Q01DX001 (iv), vehicle: saline): 108 % of control
- T/C (dose: 2.0 mg/kg/injection, schedule: Q01DX005 (oral), vehicle: water): 104 % of control
- T/C (dose: 2.0 mg/kg/injection, schedule: Q03HX008 (ip), vehicle: saline): 162 % of control
- T/C (dose: 2.0 mg/kg/injection, schedule: Q04DX003 (iv), vehicle: saline): 114 % of control
- T/C (dose: 2.1 mg/kg/injection, schedule: Q01DX004 (ip), vehicle: saline): 161 % of control
- T/C (dose: 2.59 mg/kg/injection, schedule: Q01DX001 (ip), vehicle: saline): 160 % of control
- T/C (dose: 3.0 mg/kg/injection, schedule: Q01DX001 (ip), vehicle: saline): 154 % of control
- T/C (dose: 3.0 mg/kg/injection, schedule: Q04DX003 (ip), vehicle: water): 120 % of control
- T/C (dose: 3.7 mg/kg/injection, schedule: Q01DX001 (ip), vehicle: saline): 153 % of control
- T/C (dose: 4.0 mg/kg/injection, schedule: Q01DX001 (ip), vehicle: DMSO): 162 % of control
- T/C (dose: 4.0 mg/kg/injection, schedule: Q01DX001 (ip), vehicle: saline with Tween-80): 122 % of control
- T/C (dose: 4.0 mg/kg/injection, schedule: Q01DX001 (iv), vehicle: saline): 123 % of control
- T/C (dose: 4.0 mg/kg/injection, schedule: Q01DX005 (oral), vehicle: water): 105 % of control
- T/C (dose: 4.5 mg/kg/injection, schedule: Q04DX003 (iv), vehicle: saline): 163 % of control
- T/C (dose: 4.75 mg/kg/injection, schedule: Q01DX001 (ip), vehicle: saline): 163 % of control
- T/C (dose: 5.0 mg/kg/injection, schedule: Q01DX009 (ip), vehicle: saline): 98 % of control and 105 % of control
- T/C (dose: 5.4 mg/kg/injection, schedule: Q04DX003 (ip), vehicle: saline): 150 % of control
- T/C (dose: 5.4 mg/kg/injection, schedule: Q04DX003 (ip), vehicle: water): 115 % of control
- T/C (dose: 6.0 mg/kg/injection, schedule: Q04DX003 (ip), vehicle: water): 154 % of control
- T/C (dose: 6.0 mg/kg/injection, schedule: Q04DX003 (oral), vehicle: saline): 98 % of control
- T/C (dose: 6.33 mg/kg/injection, schedule: Q01DX001 (iv), vehicle: saline): 116 % of control
- T/C (dose: 8.0 mg/kg/injection, schedule: Q01DX001 (oral), vehicle: saline): 98 % of control
- T/C (dose: 8.0 mg/kg/injection, schedule: Q01DX005 (oral), vehicle: water): 107 % of control
- T/C (dose: 8.0 mg/kg/injection, schedule: Q04DX002 (ip), vehicle: saline): 108 % of control
- T/C (dose: 10.0 mg/kg/injection, schedule: Q04DX003 (oral), vehicle: saline): 105 % of control
- T/C (dose: 11.25 mg/kg/injection, schedule: Q01DX001 (iv), vehicle: saline): 156 % of control
- T/C (dose: 12.0 mg/kg/injection, schedule: Q01DX001 (oral), vehicle: saline): 106 % of control
- T/C (dose: 15.0 mg/kg/injection, schedule: Q04DX003 (iv), vehicle: saline): 153 % of control
- T/C (dose: 16.0 mg/kg/injection, schedule: Q01DX001 (ip), vehicle: saline with Tween-80): 151 % of control
- T/C (dose: 16.0 mg/kg/injection, schedule: Q01DX001 (oral), vehicle: saline): 100 % of control
- T/C (dose: 16.0 mg/kg/injection, schedule: Q01DX005 (oral), vehicle: water): 103 % of control
- T/C (dose: 16.0 mg/kg/injection, schedule: Q04DX003 (iv), vehicle: saline): 103 % of control
- T/C (dose: 16.7 mg/kg/injection, schedule: Q04DX003 (oral), vehicle: saline): 107 % of control and 112 % of control
- T/C (dose: 17.5 mg/kg/injection, schedule: Q01DX001 (ip), vehicle: saline): 150 % of control
- T/C (dose: 20.0 mg/kg/injection, schedule: Q01DX001 (oral), vehicle: saline): 103 % of control
- T/C (dose: 27.8 mg/kg/injection, schedule: Q04DX003 (oral), vehicle: saline): 100 % of control and 106 % of control
- T/C (dose: 32.0 mg/kg/injection, schedule: Q01DX001 (ip), vehicle: Klucel (hydroxypropylcellulose) (HPC)): 112 % of control
- T/C (dose: 32.0 mg/kg/injection, schedule: Q01DX001 (ip), vehicle: saline with Tween-80): 161 % of control
- T/C (dose: 32.0 mg/kg/injection, schedule: Q01DX001 (oral), vehicle: saline): 100 % of control
- T/C (dose: 33.3 mg/kg/injection, schedule: Q01DX001 (oral), vehicle: saline): 99 % of control and 106 % of control
- T/C (dose: 46.3 mg/kg/injection, schedule: Q04DX003 (oral), vehicle: saline): 103 % of control and 112 % of control
- T/C (dose: 64.0 mg/kg/injection, schedule: Q01DX001 (oral), vehicle: saline): 107 % of control
- T/C (dose: 77.2 mg/kg/injection, schedule: Q04DX003 (oral), vehicle: saline): 101 % of control
- T/C (dose: 92.6 mg/kg/injection, schedule: Q01DX001 (oral), vehicle: saline): 106 % of control
- T/C (dose: 128.0 mg/kg/injection, schedule: Q01DX001 (oral), vehicle: saline): 100 % of control
- T/C (dose: 128.6 mg/kg/injection, schedule: Q04DX003 (oral), vehicle: saline): 99 % of control
- T/C (dose: 154.3 mg/kg/injection, schedule: Q01DX001 (oral), vehicle: saline): 101 % of control
